According to patent US8962608B2, “Cycloalkylnitrile pyrazole carboxamides as janus kinase inhibitors” (Merck Sharp & Dohme Corp., priority 2011, dated 2015):

Target: JAK2 (recombinant purified GST-tagged catalytic domain) (Homo sapiens (Human), UniProt O60674)
Test: biochemical
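Note: biochemical JAK kinase assay with HTRF detection.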

JAK2 (recombinant purified GST-tagged catalytic domain), sequence (O60674 849-1124): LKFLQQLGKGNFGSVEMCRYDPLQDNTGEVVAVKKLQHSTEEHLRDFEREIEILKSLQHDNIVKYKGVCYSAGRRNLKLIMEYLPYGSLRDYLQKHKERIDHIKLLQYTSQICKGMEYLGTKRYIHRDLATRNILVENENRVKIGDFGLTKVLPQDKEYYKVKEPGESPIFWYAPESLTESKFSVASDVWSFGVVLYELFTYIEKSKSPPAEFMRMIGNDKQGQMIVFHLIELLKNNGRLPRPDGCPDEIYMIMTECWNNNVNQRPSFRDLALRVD

Compound	IC50 [nM]
N#C[C@H]1CCCC[C@@H]1n1cc(C(N)=O)c(Nc2cccnc2)n1 (racemic) [Example 17-13, 1-[(1S,2S and 1R,2R)-2-cyanocyclohexyl]-3-(pyridin-3-ylamino)-1H-pyrazole-4-carboxamide]	36
N#C[C@@H]1C[C@H](OCC2CC2)CC[C@H]1n1cc(C(N)=O)c(Nc2ccc([C@H](O)C(F)(F)F)cc2)n1 (single isomer, unassigned) [Example 26-6, 1-[(1R,2R,4R or 1S,2S,4S)-2-cyano-4-(cyclopropylmethoxy)cyclohexyl]-3-({4-[(1S or 1R)-2,2,2-trifluoro-1-hydroxyethyl]phenyl}amino)-1H-pyrazole-4-carboxamide]	32
N#C[C@H]1CCCC[C@@H]1n1cc(C(N)=O)c(Nc2ccc(C=O)cc2)n1 (single isomer, unassigned) [Example 17-25, 1-[(1S,2S or 1R,2R)-2-cyanocyclohexyl]-3-[(4-formylphenyl)amino]-1H-pyrazole-4-carboxamide]	3
N#C[C@H]1CCCCC1n1cc(C(N)=O)c(Nc2ccc(S(=O)(=O)C(F)F)cc2)n1 (mixture of isomers) [Example 17-9, 1-[(1S,2S and 1R,2R)-2-cyanocyclohexyl]-3-({4-[(difluoromethyl)sulfonyl]phenyl}amino)-1H-pyrazole-4-carboxamide]	5
N#C[C@@H]1C[C@H](OCC2CC2)CC[C@H]1n1cc(C(N)=O)c(Nc2ccc([C@@H](O)C(F)(F)F)cc2)n1 (single isomer, unassigned) [Example 26-8, 1-[(1R,2R,4R or 1S,2S,4S)-2-cyano-4-(cyclopropylmethoxy)cyclohexyl]-3-({4-[(1R or 1S)-2,2,2-trifluoro-1-hydroxyethyl]phenyl}amino)-1H-pyrazole-4-carboxamide]	19
N#C[C@H]1C[C@@H](OCC2CC2)CC[C@@H]1n1cc(C(N)=O)c(Nc2ccc(F)cc2)n1 (single isomer, unassigned) [Example 26-9, 1-[(1S,2S,4S or 1R,2R,4R)-2-cyano-4-(cyclopropylmethoxy)cyclohexyl]-3-[(4-fluorophenyl)amino]-1H-pyrazole-4-carboxamide]	33
N#C[C@H]1CCCC[C@@H]1n1cc(C(N)=O)c(Nc2ccc(OC(F)F)nc2)n1 (racemic) [Example 17-102, 1-[(1S,2S and 1R,2R)-2-cyanocyclohexyl]-3-{[6-(difluoromethoxy)pyridin-3-yl]amino}-1H-pyrazole-4-carboxamide]	39
CS(=O)(=O)c1ccc(Nc2nn(C3CCCC[C@@H]3C#N)cc2C(N)=O)cc1F (mixture of isomers) [Example 17-8, 1-[(1S,2S and 1R,2R)-2-cyanocyclohexyl]-3-{[3-fluoro-4-(methylsulfonyl)phenyl]amino}-1H-pyrazole-4-carboxamide]	10
N#C[C@H]1C[C@@H](OCC2CC2)CC[C@H]1n1cc(C(N)=O)c(Nc2ccc(F)cc2)n1 (single isomer, unassigned) [Example 26-11, 1-[(1R,2S,4S or 1S,2R,4R)-2-cyano-4-(cyclopropylmethoxy)cyclohexyl]-3-[(4-fluorophenyl)amino]-1H-pyrazole-4-carboxamide]	> 1500

Other lines, results leading:

IC50 [nM]	Compound
13	N#C[C@H]1C[C@H](OC(=O)Nc2ccccc2)CCC1n1cc(C(N)=O)c(Nc2ccc(F)cc2)n1 (mixture of isomers) [Example 34-3, (1R,3S,4S and 1S,3R,4R)-4-{4-carbamoyl-3-[(4-fluorophonyl)aminol-1H-pyrazol-1-yl}-3-cyanocyclohexyl phenylcarbamate]
53	N#C[C@H]1C[C@H](NCC(F)F)CC[C@@H]1n1cc(C(N)=O)c(Nc2ccnc(F)c2)n1 (single isomer, unassigned) [Example 28-106, 1-{(1S,2S,4R or 1R,2R,4S)-2-cyano-4-[(2,2-difluoroethyl)amino]cyclohexyl}-3-[(2-fluoropyridin-4-yl)amino]-1H-pyrazole-4-carboxamide]
14	N#C[C@H]1C[C@@H](O)CC[C@@H]1n1cc(C(N)=O)c(Nc2ccc(Cl)nc2)n1 (single isomer, unassigned) [Example 33-14, 3-[(6-chloropyridin-3-yl)amino]-1-[(1S,2S,4S or 1R,2R,4R)-2-cyano-4-hydroxycyclohexyl]-1H-pyrazole-4-carboxamide]
15	CS(=O)(=O)c1ccc(Nc2nn([C@H]3CC[C@@H](N4CC5(CCC5)C4)C[C@@H]3C#N)cc2C(N)=O)cc1 (single isomer, unassigned) [Example 28-145, 1-[(1S,2S,4R or 1R,2R,4S)-4-(2-azaspiro[3.3]hept-2-yl)-2-cyanocyclohexyl]-3-{[4-(methylsulfonyl)phenyl]amino}-1H-pyrazole-4-carboxamide]
400	CN(C)[C@@H]1CC[C@@H](n2cc(C(N)=O)c(Nc3ccc(C(F)(F)F)nc3)n2)[C@H](C#N)C1 (single isomer, unassigned) [Example 28-18, 1-[(1R,2R,4R or 1S,2S,4S)-2-cyano-4-(dimethylamino)cyclohexyl]-3-{[6-(trifluoromethyl)pyridin-3-yl]amino}-1H-pyrazole-4-carboxamide]
113	N#C[C@H]1C[C@H](NC2CC2)CC[C@@H]1n1cc(C(N)=O)c(Nc2ccc(C(F)(F)F)cc2)n1 (single isomer, unassigned) [Example 28-139, 1-[(1S,2S,4R or 1R,2R,4R)-2-cyano-4-(cyclopropylamino)cyclohexyl]-3-{[4-(trifluoromethyl)phenyl]amino}-1H-pyrazole-4-carboxamide]
800	CN(C)[C@H]1CC[C@@H](n2cc(C(N)=O)c(Nc3ccc(C(F)(F)F)nc3)n2)[C@H](C#N)C1 (single isomer, unassigned) [Example 28-27, 1-[(1R,2R,4S or 1S,2S,4R)-2-cyano-4-(dimethylamino)cyclohexyl]-3-{[6-(trifluoromethyl)pyridin-3-yl]amino}-1H-pyrazole-4-carboxamide]
14	CN(C)[C@H]1CC[C@H](n2cc(C(N)=O)c(Nc3ccc(C(F)(F)F)cc3)n2)[C@@H](C#N)C1 (single isomer, unassigned) [Example 28-188, 1-[(1S,2S,4S or 1R,2R,4R)-2-cyano-4-(dimethylamino)cyclohexyl]-3-{[4-(trifluoromethyl)phenyl]amino}-1H-pyrazole-4-carboxamide]
39	CC1(C)CN([C@H]2CC[C@H](n3cc(C(N)=O)c(Nc4ccc(C(F)(F)F)cc4)n3)[C@@H](C#N)C2)C1 (single isomer, unassigned) [Example 28-202, 1-[(1S,2S,4S or 1R,2R,4R)-2-cyano-4-(3,3-dimethylazetidin-1-yl)cyclohexyl]-3-{[4-(trifluoromethyl)phenyl]amino}-1H-pyrazole-4-carboxamide]
21	CN(C)[C@@H]1CC[C@H](n2cc(C(N)=O)c(Nc3ccc(C(F)(F)F)cc3)n2)[C@@H](C#N)C1 (single isomer, unassigned) [Example 28-189, 1-[(1S,2S,4R or 1R,2R,4S)-2-cyano-4-(dimethylamino)cyclohexyl]-3-{[4-(trifluoromethyl)phenyl]amino}-1H-pyrazole-4-carboxamide]
500	N#C[C@H]1C[C@H](NCc2c(F)cccc2F)CC[C@@H]1n1cc(C(N)=O)c(Nc2ccc(C(F)(F)F)cc2)n1 (single isomer, unassigned) [Example 30-13, 1-{(1S,2S,4R or 1R,2R,4S)-2-cyano-4-[(2,6-difluoro-benzyl)amino]cyclohexyl}-3-{[4-(trifluoromethyl)phenyl]amino}-1H-pyrazole-4-carboxamide]
78	N#C[C@@H]1C[C@H](C(=O)NC2CCC2)CC[C@H]1n1cc(C(N)=O)c(Nc2ccc(Cl)cc2)n1 (single isomer, unassigned) [Example 35-11, 3-[(4-chlorophenyl)amino]-1-[(1R,2R,4R or 1S,2S,4S)-2-cyano-4-(cyclobutylcarbamoyl)cyclohexyl]-1H-pyrazole-4-carboxamide]
38	CC(C)(N[C@H]1CCC(n2cc(C(N)=O)c(Nc3ccccc3)n2)[C@@H](C#N)C1)C1CC1 (single isomer, unassigned) [Example 28-214, 1-{(1S,2S,4S or 1R,2R,4R)-2-cyano-4-[(1-cyclopropyl-1-methylethyl)amino]cyclohexyl}-3-(phenylamino)-1H-pyrazole-4-carboxamide]
7	N#C[C@H]1CC(NC2CC2)CCC1n1cc(C(N)=O)c(Nc2ccc(S(=O)(=O)C(F)(F)F)cc2)n1 (mixture of isomers) [Example 27-10, 1-[(1S,2S and 1R,2R)-2-cyano-4-(cyclopropylamino)cyclohexyl]-3-({4-[(trifluoromethyl)sulfonyl]phenyl}amino)-1H-pyrazole-4-carboxamide]
35	CN[C@@H]1CC[C@H](n2cc(C(N)=O)c(Nc3ccc(Cl)c(F)c3)n2)[C@@H](C#N)C1 (single isomer, unassigned) [Example 28-39, 3-[(4-chloro-3-fluorophenyl)amino]-1-[(1S,2S,4R or 1R,2R,4S)-2-cyano-4-(methylamino)cyclohexyl]-1H-pyrazole-4-carboxamide]
107	N#C[C@H]1C[C@@H](OC(=O)Nc2ccccc2)CCC1n1cc(C(N)=O)c(Nc2ccc(F)cc2)n1 (mixture of isomers) [Example 34-1, (1S,3S,4S and 1R,3R,4R)-4-{4-Carbamoyl-3-[(4-fluorophenyl)amino]-1H-pyrazol-1-yl}-3-cyanocyclohexyl phenylcarbamate]
200	C[C@H](N[C@H]1CC[C@H](n2cc(C(N)=O)c(Nc3ccc(C(F)(F)F)nc3)n2)[C@@H](C#N)C1)C1CC1 (single isomer, unassigned) [Example 28-8, 1-[(1S,2S,4S or 1R,2R,4R)-2-cyano-4-{[(1S)-1-cyclopropylethyl]amino}cyclo-hexyl]-3-{[6-(trifluoromethyl)pyridin-3-yl]amino}-1H-pyrazole-4-carboxamide]
2	CN(C(C1CC1)C1CC1)[C@H]1CC[C@H](n2cc(C(N)=O)c(Nc3ccc(S(=O)(=O)C(F)(F)F)cc3)n2)[C@@H](C#N)C1 (single isomer, unassigned) [Example 28-178, 1-{(1S,2S,4S or 1R,2R,4R)-2-cyano-4-[(dicyclopropyl-methyl)(methyl)amino]cyclo-hexyl}-3-({4-[(trifluoromethyl)sulfonyl]phen-yl}amino)-1H-pyrazole-4-carboxamide]
